In patent US10800791B2, “Triazole ACC inhibitors and uses thereof” (Gilead Apollo, LLC, priority 2015, dated 2020):
In brackets after ≈: the same amount, converted by molar mass. Where two headings read alike, the source gives them in different places.

Tests used:
C. albicans = experiment: Antifungal Activity Assay (broth microtiter MIC), C. albicans; format: cell-based, Candida albicans; details: Candida albicans, ATCC90028, 48 h
Procedure, shortened: (§1)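 Susceptibility was determined by CLSI M27-A3 broth microdilution in RPMI 1640 buffered with MOPS. Growth inhibition was scored visually after 48 h.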

C. parapsilosis = experiment: Antifungal Activity Assay (broth microtiter MIC), C. parapsilosis; format: cell-based, Candida parapsilosis; details: Lodderomyces parapsilosis, ATCC22019, 48 h
Procedure, shortened: as §1

human (hACC2) = human (hACC2) (Homo sapiens, UniProt O00763); experiment: In vitro ACC inhibition assay (ADP-Glo), hACC2; format: biochemical; details: 5 nM ACC2, 20 μM ATP, 20 μM acetyl-CoA
Method: The detailed procedure is as follows. […] 10 μL ADP glo reagent was added. […] 20 μL kinase detection reagent was added.

fungal (fACC2) = fungal (fACC2) (UniProt Q00955); details: read-out: fACC2 (in vitro ACC2 Inhibition Assay, IC50), ADP-Glo, 5 nM ACC2, 20 μM ATP, 20 μM acetyl-CoA
C. krusei = experiment: Antifungal Activity Assay (broth microtiter MIC), C. krusei; format: cell-based, Candida krusei; details: Pichia kudriavzevii, ATCC6258, 48 h
Procedure, shortened: as §1

[1] = read-out: MIC, C. albicans ATCC 90028, Table 3b (additional results), 3 replicates, MIC recorded at 48 h
[2] = read-out: MIC, C. parapsilosis ATCC 22019, Table 3b (additional results), 3 replicates, MIC recorded at 48 h
[3] = read-out: MIC, C. krusei ATCC 6258, Table 3b (additional results), 3 replicates, MIC recorded at 48 h
[4] = Table 3a, ATCC 90028, 3 replicates, MIC recorded at 48 h, read-out: MIC, C. albicans ATCC 90028
[5] = Table 3b (additional results), ATCC 90028, 3 replicates, MIC recorded at 48 h, read-out: MIC, C. albicans ATCC 90028
[6] = Table 3a, ATCC 22019, 3 replicates, MIC recorded at 48 h, read-out: MIC, C. parapsilosis ATCC 22019
[7] = Table 3b (additional results), ATCC 22019, 3 replicates, MIC recorded at 48 h, read-out: MIC, C. parapsilosis ATCC 22019
[8] = Table 3a, ATCC 6258, 3 replicates, MIC recorded at 48 h, read-out: MIC, C. krusei ATCC 6258
[9] = Table 3b (additional results), ATCC 6258, 3 replicates, MIC recorded at 48 h, read-out: MIC, C. krusei ATCC 6258

Sequence of human (hACC2) (O00763 whole entry): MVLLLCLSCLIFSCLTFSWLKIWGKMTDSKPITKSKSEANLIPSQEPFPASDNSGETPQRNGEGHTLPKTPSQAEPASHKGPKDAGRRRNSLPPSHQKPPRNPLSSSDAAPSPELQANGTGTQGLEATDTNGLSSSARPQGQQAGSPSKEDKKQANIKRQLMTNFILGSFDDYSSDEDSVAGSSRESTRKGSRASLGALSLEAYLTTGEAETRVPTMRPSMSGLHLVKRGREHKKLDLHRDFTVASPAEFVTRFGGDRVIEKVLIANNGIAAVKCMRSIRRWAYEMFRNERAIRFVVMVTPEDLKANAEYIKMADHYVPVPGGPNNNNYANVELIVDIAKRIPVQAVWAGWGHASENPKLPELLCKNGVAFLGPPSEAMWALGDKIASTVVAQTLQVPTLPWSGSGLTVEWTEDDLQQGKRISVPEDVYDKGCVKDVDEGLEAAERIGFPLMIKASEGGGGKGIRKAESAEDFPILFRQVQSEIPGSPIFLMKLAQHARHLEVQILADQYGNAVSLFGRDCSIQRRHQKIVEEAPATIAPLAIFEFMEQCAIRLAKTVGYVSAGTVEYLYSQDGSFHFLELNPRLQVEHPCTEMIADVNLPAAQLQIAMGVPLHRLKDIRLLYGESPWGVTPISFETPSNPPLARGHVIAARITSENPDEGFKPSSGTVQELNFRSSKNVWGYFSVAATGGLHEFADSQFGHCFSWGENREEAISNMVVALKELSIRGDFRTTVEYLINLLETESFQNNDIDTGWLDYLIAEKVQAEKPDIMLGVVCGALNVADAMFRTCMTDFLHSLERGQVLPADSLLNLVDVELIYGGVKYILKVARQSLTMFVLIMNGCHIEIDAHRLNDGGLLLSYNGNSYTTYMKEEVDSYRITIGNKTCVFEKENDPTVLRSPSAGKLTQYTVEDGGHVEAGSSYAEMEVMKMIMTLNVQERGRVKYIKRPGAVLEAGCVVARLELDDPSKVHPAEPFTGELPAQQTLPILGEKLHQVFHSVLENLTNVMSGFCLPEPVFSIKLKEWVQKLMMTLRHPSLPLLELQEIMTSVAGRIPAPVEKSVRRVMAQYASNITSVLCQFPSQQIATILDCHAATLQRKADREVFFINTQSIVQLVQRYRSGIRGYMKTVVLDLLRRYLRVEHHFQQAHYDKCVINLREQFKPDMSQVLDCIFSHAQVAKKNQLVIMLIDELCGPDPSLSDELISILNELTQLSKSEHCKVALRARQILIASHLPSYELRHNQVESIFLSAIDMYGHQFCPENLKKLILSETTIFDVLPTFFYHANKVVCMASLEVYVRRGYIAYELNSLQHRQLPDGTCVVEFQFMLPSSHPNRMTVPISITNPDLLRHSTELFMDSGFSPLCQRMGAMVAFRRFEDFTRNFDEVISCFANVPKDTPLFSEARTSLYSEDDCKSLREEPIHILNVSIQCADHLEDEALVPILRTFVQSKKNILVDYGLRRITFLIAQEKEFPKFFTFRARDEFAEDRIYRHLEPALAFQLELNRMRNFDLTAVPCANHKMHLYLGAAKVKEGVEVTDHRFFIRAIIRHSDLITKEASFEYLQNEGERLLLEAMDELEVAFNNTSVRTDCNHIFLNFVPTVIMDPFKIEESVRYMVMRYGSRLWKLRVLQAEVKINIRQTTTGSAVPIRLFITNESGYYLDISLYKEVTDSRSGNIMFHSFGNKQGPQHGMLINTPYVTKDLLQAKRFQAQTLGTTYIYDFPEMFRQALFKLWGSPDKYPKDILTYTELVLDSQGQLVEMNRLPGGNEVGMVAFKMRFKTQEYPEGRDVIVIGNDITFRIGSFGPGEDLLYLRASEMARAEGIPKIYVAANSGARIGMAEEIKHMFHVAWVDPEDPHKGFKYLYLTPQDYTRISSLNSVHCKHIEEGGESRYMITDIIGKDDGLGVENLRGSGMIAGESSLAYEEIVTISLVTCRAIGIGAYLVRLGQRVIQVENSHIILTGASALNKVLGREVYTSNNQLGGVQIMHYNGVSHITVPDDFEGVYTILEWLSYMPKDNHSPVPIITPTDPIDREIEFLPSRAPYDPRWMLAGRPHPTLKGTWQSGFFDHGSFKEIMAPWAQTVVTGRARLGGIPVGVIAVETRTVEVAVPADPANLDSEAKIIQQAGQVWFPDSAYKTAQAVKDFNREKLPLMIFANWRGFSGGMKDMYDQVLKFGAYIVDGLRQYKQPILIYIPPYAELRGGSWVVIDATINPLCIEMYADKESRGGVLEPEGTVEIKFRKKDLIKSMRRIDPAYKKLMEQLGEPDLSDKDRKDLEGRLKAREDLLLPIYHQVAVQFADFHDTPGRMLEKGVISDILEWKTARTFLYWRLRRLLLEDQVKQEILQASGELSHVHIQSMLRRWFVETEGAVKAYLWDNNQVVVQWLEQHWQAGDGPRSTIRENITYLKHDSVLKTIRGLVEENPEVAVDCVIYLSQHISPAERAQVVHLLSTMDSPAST
Sequence of fungal (fACC2) (Q00955 whole entry): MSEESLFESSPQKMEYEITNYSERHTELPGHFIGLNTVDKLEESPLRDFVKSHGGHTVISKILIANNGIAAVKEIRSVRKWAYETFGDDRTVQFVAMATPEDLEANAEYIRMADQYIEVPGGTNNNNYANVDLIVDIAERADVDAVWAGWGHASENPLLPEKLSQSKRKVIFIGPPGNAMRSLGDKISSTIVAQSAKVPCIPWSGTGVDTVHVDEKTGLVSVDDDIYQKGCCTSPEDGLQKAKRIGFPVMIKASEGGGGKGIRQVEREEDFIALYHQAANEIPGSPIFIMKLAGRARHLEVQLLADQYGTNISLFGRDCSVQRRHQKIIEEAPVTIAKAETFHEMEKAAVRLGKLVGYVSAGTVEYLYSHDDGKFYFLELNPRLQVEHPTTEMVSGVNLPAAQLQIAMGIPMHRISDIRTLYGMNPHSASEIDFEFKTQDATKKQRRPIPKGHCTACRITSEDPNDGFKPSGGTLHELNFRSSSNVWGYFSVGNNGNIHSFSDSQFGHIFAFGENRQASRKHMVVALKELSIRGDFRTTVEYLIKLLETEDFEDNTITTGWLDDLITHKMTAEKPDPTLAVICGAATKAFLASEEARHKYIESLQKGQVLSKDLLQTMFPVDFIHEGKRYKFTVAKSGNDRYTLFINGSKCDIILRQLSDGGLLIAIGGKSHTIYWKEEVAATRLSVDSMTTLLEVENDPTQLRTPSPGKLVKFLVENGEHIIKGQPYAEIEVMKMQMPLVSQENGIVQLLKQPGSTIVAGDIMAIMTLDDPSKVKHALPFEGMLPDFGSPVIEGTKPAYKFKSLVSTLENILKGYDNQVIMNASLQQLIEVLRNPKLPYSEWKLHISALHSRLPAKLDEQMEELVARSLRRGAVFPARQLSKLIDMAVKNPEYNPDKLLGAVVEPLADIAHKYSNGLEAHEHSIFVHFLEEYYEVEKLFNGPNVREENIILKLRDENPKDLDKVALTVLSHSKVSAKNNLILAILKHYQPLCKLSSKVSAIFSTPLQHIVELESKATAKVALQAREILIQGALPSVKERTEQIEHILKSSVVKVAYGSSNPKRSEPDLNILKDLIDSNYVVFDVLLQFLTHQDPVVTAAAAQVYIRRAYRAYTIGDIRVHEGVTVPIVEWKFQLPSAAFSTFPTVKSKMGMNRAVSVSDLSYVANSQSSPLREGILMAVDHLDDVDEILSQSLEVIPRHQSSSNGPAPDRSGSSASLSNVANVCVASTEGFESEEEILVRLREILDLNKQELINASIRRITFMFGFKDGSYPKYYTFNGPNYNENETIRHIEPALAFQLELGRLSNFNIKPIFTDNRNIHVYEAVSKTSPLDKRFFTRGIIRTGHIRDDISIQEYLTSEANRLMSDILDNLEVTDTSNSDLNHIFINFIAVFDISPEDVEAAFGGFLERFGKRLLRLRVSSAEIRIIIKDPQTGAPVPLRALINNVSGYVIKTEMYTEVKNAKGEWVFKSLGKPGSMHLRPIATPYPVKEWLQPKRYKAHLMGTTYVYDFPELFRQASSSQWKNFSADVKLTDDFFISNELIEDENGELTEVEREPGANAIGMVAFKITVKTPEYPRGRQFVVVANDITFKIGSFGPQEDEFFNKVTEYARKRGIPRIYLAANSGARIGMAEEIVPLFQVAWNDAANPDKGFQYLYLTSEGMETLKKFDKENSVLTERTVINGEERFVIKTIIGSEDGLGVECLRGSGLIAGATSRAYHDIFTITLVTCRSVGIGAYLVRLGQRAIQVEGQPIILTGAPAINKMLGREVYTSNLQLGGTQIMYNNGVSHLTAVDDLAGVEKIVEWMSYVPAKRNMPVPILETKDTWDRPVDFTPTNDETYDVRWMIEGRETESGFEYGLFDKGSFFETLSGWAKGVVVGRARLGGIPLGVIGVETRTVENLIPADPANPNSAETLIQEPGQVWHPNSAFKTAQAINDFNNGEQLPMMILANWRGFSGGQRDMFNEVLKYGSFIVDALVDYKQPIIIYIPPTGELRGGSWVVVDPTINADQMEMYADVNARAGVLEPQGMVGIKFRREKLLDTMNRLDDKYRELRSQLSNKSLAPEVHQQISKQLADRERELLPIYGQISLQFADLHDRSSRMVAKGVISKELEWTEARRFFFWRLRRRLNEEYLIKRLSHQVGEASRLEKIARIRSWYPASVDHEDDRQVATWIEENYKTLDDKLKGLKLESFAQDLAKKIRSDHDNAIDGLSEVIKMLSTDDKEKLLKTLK

COc1ccc(F)cc1[C@H](Cn1c(=O)n(C(C)(C)C(=O)NC(C)C)c(=O)c2c(C)c(-n3nccn3)sc21)O[C@H]1CC[C@H](C#N)CC1 [Compound I-159]
MIC (C. albicans; read-out: MIC, C. albicans ATCC 90028, Table 3a, 3 replicates, MIC recorded at 48 h): 0.25 to 1 µg/mL (≈ 0.384 to 1.53 µM)
MIC (C. albicans; [1]): 0.25 to 1 µg/mL (≈ 0.384 to 1.53 µM)
MIC (C. parapsilosis; read-out: MIC, C. parapsilosis ATCC 22019, Table 3a, 3 replicates, MIC recorded at 48 h): 0.25 to 1 µg/mL (≈ 0.384 to 1.53 µM)
MIC (C. parapsilosis; [2]): 0.25 to 1 µg/mL (≈ 0.384 to 1.53 µM)
IC50 (human (hACC2); Table 2a): 1 to 5 nM
IC50 (human (hACC2); Table 2b, additional results): 1 to 5 nM
IC50 (fungal (fACC2); Table 2a): 1 to 5 nM
IC50 (fungal (fACC2); Table 2b, additional results): 1 to 5 nM
MIC (C. krusei; read-out: MIC, C. krusei ATCC 6258, Table 3a, 3 replicates, MIC recorded at 48 h): 0.25 to 1 µg/mL (≈ 0.384 to 1.53 µM)
MIC (C. krusei; [3]): 0.06 to 0.249 µg/mL (≈ 0.0921 to 0.382 µM)

COc1ccc(F)cc1[C@H](Cn1c(=O)n(C(C)(C)C(=O)NC(C)(C)C)c(=O)c2c(C)c(-n3nccn3)sc21)OCCCO [Compound I-160]
MIC (C. albicans; [4]): 2.1 to 4 µg/mL (≈ 3.41 to 6.49 µM)
MIC (C. albicans; [5]): 2.01 to 4 µg/mL (≈ 3.26 to 6.49 µM)
MIC (C. parapsilosis; [6]): 1.1 to 2 µg/mL (≈ 1.78 to 3.24 µM)
MIC (C. parapsilosis; [7]): 2.01 to 4 µg/mL (≈ 3.26 to 6.49 µM)
IC50 (human (hACC2); Table 2a): 5 to 10 nM
IC50 (human (hACC2); Table 2b, additional results): 5 to 10 nM
IC50 (fungal (fACC2); Table 2a): 1 to 5 nM
IC50 (fungal (fACC2); Table 2b, additional results): 1 to 5 nM
MIC (C. krusei; [8]): 0.25 to 1 µg/mL (≈ 0.405 to 1.62 µM)
MIC (C. krusei; [9]): 1.01 to 2 µg/mL (≈ 1.64 to 3.24 µM)

COc1ccc(F)cc1[C@H](Cn1c(=O)n(C(C)(C)C(=O)NO)c(=O)c2c(C)c(-n3nccn3)sc21)OCCCO [Compound I-161]
MIC (C. albicans; [4]): 2.1 to 4 µg/mL (≈ 3.64 to 6.94 µM)
MIC (C. albicans; [5]): 2.01 to 4 µg/mL (≈ 3.49 to 6.94 µM)
MIC (C. parapsilosis; [6]): 2.1 to 4 µg/mL (≈ 3.64 to 6.94 µM)
MIC (C. parapsilosis; [7]): 2.01 to 4 µg/mL (≈ 3.49 to 6.94 µM)
IC50 (human (hACC2); Table 2a): 1 to 5 nM
IC50 (human (hACC2); Table 2b, additional results): 1 to 5 nM
IC50 (fungal (fACC2); Table 2a): 0.4 to 1 nM
IC50 (fungal (fACC2); Table 2b, additional results): 0.3 to 1 nM
MIC (C. krusei; [8]): 2.1 to 4 µg/mL (≈ 3.64 to 6.94 µM)
MIC (C. krusei; [9]): 1.01 to 2 µg/mL (≈ 1.75 to 3.47 µM)

COc1ccc(F)cc1[C@H](Cn1c(=O)n(C(C)(C)C(=O)N(O)C(C)C)c(=O)c2c(C)c(-n3nccn3)sc21)OCCCO [Compound I-163]
MIC (C. albicans; [4]): 0.25 to 1 µg/mL (≈ 0.404 to 1.62 µM)
MIC (C. albicans; [5]): 1.01 to 2 µg/mL (≈ 1.63 to 3.23 µM)
MIC (C. parapsilosis; [6]): 0.25 to 1 µg/mL (≈ 0.404 to 1.62 µM)
MIC (C. parapsilosis; [7]): 2.01 to 4 µg/mL (≈ 3.25 to 6.47 µM)
IC50 (human (hACC2); Table 2a): 5 to 10 nM
IC50 (human (hACC2); Table 2b, additional results): 5 to 10 nM
IC50 (fungal (fACC2); Table 2a): 1 to 5 nM
IC50 (fungal (fACC2); Table 2b, additional results): 1 to 5 nM
MIC (C. krusei; [8]): 0.25 to 1 µg/mL (≈ 0.404 to 1.62 µM)
MIC (C. krusei; [9]): 0.25 to 1 µg/mL (≈ 0.404 to 1.62 µM)

COc1ccc(F)cc1[C@H](Cn1c(=O)n([C@H](C)C(=O)N(C)C(C)C)c(=O)c2c(C)c(-n3nccn3)sc21)OC1CCC(=O)CC1 [Compound I-164]
MIC (C. albicans; [4]): 0.25 to 1 µg/mL (≈ 0.39 to 1.56 µM)
MIC (C. albicans; [5]): 0.25 to 1 µg/mL (≈ 0.39 to 1.56 µM)
MIC (C. parapsilosis; [6]): 0.25 to 1 µg/mL (≈ 0.39 to 1.56 µM)
MIC (C. parapsilosis; [7]): 1.01 to 2 µg/mL (≈ 1.58 to 3.12 µM)
IC50 (human (hACC2); Table 2a): 5 to 10 nM
IC50 (human (hACC2); Table 2b, additional results): 5 to 10 nM
IC50 (fungal (fACC2); Table 2a): 1 to 5 nM
IC50 (fungal (fACC2); Table 2b, additional results): 1 to 5 nM
MIC (C. krusei; [8]): 0.25 to 1 µg/mL (≈ 0.39 to 1.56 µM)
MIC (C. krusei; [9]): 0.25 to 1 µg/mL (≈ 0.39 to 1.56 µM)

COc1ccc(F)cc1[C@H](Cn1c(=O)n([C@@H](C)C(=O)N(C)C(C)C)c(=O)c2c(C)c(-n3nccn3)sc21)OC1CCC(=O)CC1 [Compound I-165]
MIC (C. albicans; [4]): 0.25 to 1 µg/mL (≈ 0.39 to 1.56 µM)
MIC (C. albicans; [5]): 0.25 to 1 µg/mL (≈ 0.39 to 1.56 µM)
MIC (C. parapsilosis; [6]): 1.1 to 2 µg/mL (≈ 1.72 to 3.12 µM)
MIC (C. parapsilosis; [7]): 1.01 to 2 µg/mL (≈ 1.58 to 3.12 µM)
IC50 (human (hACC2); Table 2a): 5 to 10 nM
IC50 (human (hACC2); Table 2b, additional results): 5 to 10 nM
IC50 (fungal (fACC2); Table 2a): 1 to 5 nM
IC50 (fungal (fACC2); Table 2b, additional results): 1 to 5 nM
MIC (C. krusei; [8]): 0.25 to 1 µg/mL (≈ 0.39 to 1.56 µM)
MIC (C. krusei; [9]): 0.25 to 1 µg/mL (≈ 0.39 to 1.56 µM)

COc1ccc(F)cc1[C@H](Cn1c(=O)n([C@H](C)C(=O)N(C)C(C)C)c(=O)c2c(C)c(-n3nccn3)sc21)O[C@H]1CC[C@@H](O)CC1 [Compound I-166]
MIC (C. albicans; [4]): 0.25 to 1 µg/mL (≈ 0.389 to 1.56 µM)
MIC (C. albicans; [5]): 0.25 to 1 µg/mL (≈ 0.389 to 1.56 µM)
MIC (C. parapsilosis; [6]): 0.25 to 1 µg/mL (≈ 0.389 to 1.56 µM)
MIC (C. parapsilosis; [7]): 1.01 to 2 µg/mL (≈ 1.57 to 3.11 µM)
IC50 (human (hACC2); Table 2a): 1 to 5 nM
IC50 (human (hACC2); Table 2b, additional results): 1 to 5 nM
IC50 (fungal (fACC2); Table 2a): 0.4 to 1 nM
IC50 (fungal (fACC2); Table 2b, additional results): 0.3 to 1 nM
MIC (C. krusei; [8]): 0.25 to 1 µg/mL (≈ 0.389 to 1.56 µM)
MIC (C. krusei; [9]): 1.01 to 2 µg/mL (≈ 1.57 to 3.11 µM)

COc1ccc(F)cc1[C@H](Cn1c(=O)n([C@@H](C)C(=O)N(C)C(C)C)c(=O)c2c(C)c(-n3nccn3)sc21)O[C@H]1CC[C@@H](O)CC1 [Compound I-167]
MIC (C. albicans; [4]): 1.1 to 2 µg/mL (≈ 1.71 to 3.11 µM)
MIC (C. albicans; [5]): 0.25 to 1 µg/mL (≈ 0.389 to 1.56 µM)
MIC (C. parapsilosis; [6]): 2.1 to 4 µg/mL (≈ 3.27 to 6.22 µM)
MIC (C. parapsilosis; [7]): 1.01 to 2 µg/mL (≈ 1.57 to 3.11 µM)
IC50 (human (hACC2); Table 2a): 5 to 10 nM
IC50 (human (hACC2); Table 2b, additional results): 5 to 10 nM
IC50 (fungal (fACC2); Table 2a): 0.4 to 1 nM
IC50 (fungal (fACC2); Table 2b, additional results): 0.3 to 1 nM
MIC (C. krusei; [8]): 0.25 to 1 µg/mL (≈ 0.389 to 1.56 µM)
MIC (C. krusei; [9]): 1.01 to 2 µg/mL (≈ 1.57 to 3.11 µM)

COc1ccc(F)cc1[C@H](Cn1c(=O)n(C(C)(C)C(=O)NC(C)C)c(=O)c2c(C)c(-n3nccn3)sc21)OCCC(C)(C)O [Compound I-168]
MIC (C. albicans; [1]): 0.25 to 1 µg/mL (≈ 0.396 to 1.59 µM)
MIC (C. parapsilosis; [2]): 0.25 to 1 µg/mL (≈ 0.396 to 1.59 µM)
IC50 (human (hACC2); Table 2a): 5 to 10 nM
IC50 (human (hACC2); Table 2b, additional results): 5 to 10 nM
IC50 (fungal (fACC2); Table 2a): 1 to 5 nM
IC50 (fungal (fACC2); Table 2b, additional results): 1 to 5 nM
MIC (C. krusei; [3]): 0.25 to 1 µg/mL (≈ 0.396 to 1.59 µM)

COc1ccc(F)cc1[C@H](Cn1c(=O)n([C@H](C)C(=O)N(C)C(C)C)c(=O)c2c(C)c(-n3nccn3)sc21)OCC(C)(C)O [Compound I-169]
MIC (C. albicans; [5]): 0.25 to 1 µg/mL (≈ 0.405 to 1.62 µM)
MIC (C. parapsilosis; [7]): 2.01 to 4 µg/mL (≈ 3.26 to 6.49 µM)
IC50 (human (hACC2); Table 2a): > 40 nM
IC50 (human (hACC2); Table 2b, additional results): > 40 nM
IC50 (fungal (fACC2); Table 2a): 1 to 5 nM
IC50 (fungal (fACC2); Table 2b, additional results): 1 to 5 nM
MIC (C. krusei; [9]): > 4.01 µg/mL
